Measured values reported in patent publication US11021475B2, “Amide-substituted heterocyclic compounds useful as modulators of IL-12, IL-23 and/or IFN alpha responses” (Bristol-Myers Squibb Company, priority 2012, dated 2021).
Read-outs that look alike come from different tables or passages of the source.

Columns and labels:
[1] = system: IL-23 stimulated Kit225 T cells (STAT-dependent luciferase reporter); assay: Kit225 T cell assay, IL-23-stimulated STAT-dependent luciferase reporter; type: cell-based, human
Protocol: (§1) Kit225 T cells with a stably-integrated STAT-dependent luciferase reporter were plated in RPMI (Gibco) containing 10% heat-inactivated FBS (Gibco) and 100 U/mL PenStrep (Gibco). The cells were then stimulated with either 20 ng/mL human recombinant IL-23 or 200 U/mL human recombinant IFNα (PBL InterferonSource) for 5-6 hours. Luciferase expression was measured using the STEADY-GLO® Luciferase Assay System (Promega) according to the manufacturer's instructions. Inhibition data were calculated by comparison to no inhibitor control wells for 0% inhibition and non-stimulated control wells for 100% inhibition.

[2] = system: IFNα stimulated Kit225 T cells (STAT-dependent luciferase reporter); assay: Kit225 T cell assay, IFNα-stimulated STAT-dependent luciferase reporter; type: cell-based, human
Protocol: as §1

[3] = 20 ng/mL human recombinant IL-23, 5-6 hours, read-out: IL-23 Kit225 Reporter (IC50)
[4] = 200 U/mL human recombinant IFNα, 5-6 hours, read-out: IFNα Kit225 Reporter (IC50)
[5] = KIT225, 20 ng/mL human recombinant IL-23, 5-6 hours, read-out: IL-23 Kit225 Reporter (IC50)
[6] = KIT225, 200 U/mL human recombinant IFNα, 5-6 hours, read-out: IFNα Kit225 Reporter (IC50)

Row | IC50 [1, 3] | IC50 [2, 4] | Structure (SMILES) | other results
1 | 5.9 nM | 6.81 nM | CNC(=O)c1nnc(Nc2cccnn2)cc1Nc1cccc(-c2ncccn2)c1OC [Example 123] | 
2 | 20 nM | 10 nM | CNC(=O)c1nnc(NC(=O)C2CC2)cc1Nc1cccc(-c2ncn(CCF)n2)c1OC [Example 175] | 
3 | 20 nM | 20 nM | CNC(=O)c1nnc(NC(=O)C2CC2)cc1Nc1cccc(-c2cn(C(C)C)nn2)c1OC [Example 190] | 
4 |  |  | [2H]C([2H])([2H])NC(=O)c1nnc(Nc2ccccn2)cc1Nc1cccc(-c2nc(C)no2)c1OC [Example 163, 4-((2-methoxy-3-(3-methyl-1,2,4-oxadiazol-5-yl)phenyl)amino)-N-trideutero-methyl-6-(pyridin-2-ylamino)pyridazine-3-carboxamide] | IC50 [1, 5]: 40 nM; IC50 [2, 6]: 30 nM
5 | 60 nM | 20 nM | CNC(=O)c1nnc(Nc2cc(C)c(F)cn2)cc1Nc1cccc(-c2ncnn2C)c1OC [Example 180] | 
6 | 40 nM | 8.63 nM | CNC(=O)c1nnc(Nc2cc(C)n(C)n2)cc1Nc1cccc(-c2ncccn2)c1OC [Example 92] | 
7 | 6.08 nM | 3.17 nM | CCc1ccnc(Nc2cc(Nc3cccc(-c4ncn(C)n4)c3OC)c(C(=O)NC)nn2)c1 [Example 128] | 
8 | 250 nM | 60 nM | CNC(=O)c1nnc(NC(=O)C2CC2)cc1Nc1cccc(-n2cccn2)c1OC [Example 64] | 
9 | 10 nM | 20 nM | CNC(=O)c1nnc(Nc2cc(C)nc(C)n2)cc1Nc1cccc(-c2nc(C)cs2)c1OC [Example 97] | 
10 |  |  | [2H]C([2H])([2H])NC(=O)c1nnc(Nc2cc(C)c(F)cn2)cc1Nc1ccccc1S(C)(=O)=O [Example 1] | IC50 [1, 5]: 30 nM; IC50 [2, 6]: 20 nM
11 | 230 nM | 150 nM | CNC(=O)c1nnc(Nc2cc(C(C)O)ccn2)cc1Nc1cccc(-c2cscn2)c1OC (stereo not shown) [Example 157] | 
12 | 310 nM | 490 nM | CNC(=O)c1nnc(Nc2cc(C(C)(C)O)ccn2)cc1Nc1ccccc1S(C)(=O)=O [Example 50] | 
13 | 100 nM | 40 nM | CNC(=O)c1nnc(Nc2cc(C)ccn2)cc1Nc1ccccc1S(C)(=O)=O [Example 23] | 
14 | 70 nM | 50 nM | CNC(=O)c1nnc(Nc2cc(C)nc(C)n2)cc1Nc1ccccc1S(C)(=O)=O [Example 7] | 
15 | 10 nM | 3.15 nM | CNC(=O)c1nnc(Nc2cc(C)nc(C)n2)cc1Nc1cccc(-c2nnn(C)n2)c1OC [Example 144] | 
16 | 20 nM | 2.18 nM | CNC(=O)c1nnc(Nc2ccc(F)cn2)cc1Nc1cccc(-c2ccncn2)c1OC [Example 89] | 
17 |  |  | [2H]C([2H])([2H])NC(=O)c1nnc(NC(=O)C2CC2)cc1Nc1cccc(-c2nc[nH]n2)c1OC [Example 173] | IC50 ([1]; Homo sapiens, KIT225, read-out: IL-23 Kit225 Reporter (IC50, nM)): 120 nM; IC50 ([2]; Homo sapiens, KIT225, read-out: IFNα Kit225 Reporter (IC50, nM)): 20 nM
18 | 110 nM | 80 nM | CNC(=O)c1nnc(NC(=O)C2CC2)cc1Nc1cccc(-c2cn(C)cn2)c1OC [Example 159] | 
19 | 40 nM | 60 nM | CNC(=O)c1nnc(NC(=O)C2CC2)cc1Nc1cccc(-c2cnn(C)c2)c1OC [Example 63] | 
20 | 80 nM | 30 nM | CNC(=O)c1nnc(Nc2ccccn2)cc1Nc1cccc(-c2ncc(C)s2)c1OC [Example 117] | 
21 | 30 nM | 3.2 nM | CNC(=O)c1nnc(Nc2ccc(C)nn2)cc1Nc1cccc(-c2ncccn2)c1OC [Example 122] | 
22 | 10 nM | 7.37 nM | CNC(=O)c1nnc(Nc2cc(C)ncn2)cc1Nc1cccc(-c2ncccn2)c1OC [Example 119] | 
23 | 40 nM | 50 nM | CNC(=O)c1nnc(Nc2cc(C)n(C)n2)cc1Nc1cccc(-c2nc(C)cs2)c1OC [Example 100] | 

Row | IC50 [1, 3] | IC50 [2, 4] | Structure (SMILES) | other results
24 | 660 nM | 400 nM | CNC(=O)c1nnc(Nc2cc(C(C)=O)ccn2)cc1Nc1ccccc1S(C)(=O)=O [Example 33] | 
25 | 190 nM | 230 nM | CNC(=O)c1nnc(Nc2ccccn2)cc1Nc1cccc(-c2ccnn2C)c1OC [Example 199] | 
26 | 50 nM | 10 nM | CNC(=O)c1nnc(Nc2cc(C)n(C)n2)cc1Nc1cccc(-c2ccn(C)n2)c1OC [Example 93] | 
27 | 40 nM | 140 nM | CNC(=O)c1nnc(NC(=O)C2CC2)cc1Nc1cccc(-c2nnnn2C)c1OC [Example 143] | 
28 | 10 nM | 6.92 nM | CNC(=O)c1nnc(Nc2cc(C)nc(C)n2)cc1Nc1cccc(-c2cnn(C)n2)c1OC [Example 137] | 
29 | 100 nM | 60 nM | CNC(=O)c1nnc(Nc2ccc(F)cn2)cc1Nc1ccccc1S(C)(=O)=O [Example 3] | 
30 | 10 nM | 20 nM | CNC(=O)c1nnc(Nc2ccnc(C)n2)cc1Nc1cccc(-c2ncccn2)c1OC [Example 158] | 
31 | 20 nM |  | CNC(=O)c1nnc(NC(=O)C2CC2)cc1Nc1cccc(-c2ncccn2)c1OC [Example 70] | 
32 | 150 nM | 30 nM | CNC(=O)c1nnc(Nc2cc(C)nc(C)n2)cc1Nc1cccc(-c2nnc(C)o2)c1OC [Example 153] | 
33 | 100 nM | 80 nM | CNC(=O)c1nnc(Nc2ccccn2)cc1Nc1cccc(C(=O)NCCC(C)(C)O)c1OC [Example 168] | 
34 | 130 nM |  | CNC(=O)c1nnc(NC(=O)C2CC2)cc1Nc1cccc(-c2ccccn2)c1OC [Example 72] | 
35 | 10 nM | 7.13 nM | CNC(=O)c1nnc(Nc2cc(C)ncn2)cc1Nc1cccc(-c2ncn(C)n2)c1OC [Example 109] | 
36 | 170 nM | 100 nM | CNC(=O)c1nnc(Nc2cc(OC)ccn2)cc1Nc1ccccc1S(C)(=O)=O [Example 38] | 
37 | 250 nM | 100 nM | CNC(=O)c1nnc(Nc2cc(OC(C)C)nc(C)n2)cc1Nc1ccccc1S(C)(=O)=O [Example 44] | 
38 | 40 nM | 7.38 nM | CNC(=O)c1nnc(Nc2ccccn2)cc1Nc1cccc(-c2ccncn2)c1OC [Example 96] | 
39 |  |  | [2H]C([2H])([2H])NC(=O)c1nnc(NC(=O)C2CC2)cc1Nc1cccc(-c2nc(C)no2)c1OC [Example 162, 6-(cyclopropanecarboxamido)-4-((2-methoxy-3-(3-methyl-1,2,4-oxadiazol-5-yl)phenyl)amino)-N-trideuteromethylpyridazine-3-carboxamide] | IC50 [1, 5]: 120 nM; IC50 [2, 6]: 60 nM
40 | 20 nM | 50 nM | CNC(=O)c1nnc(Nc2cc3ccccc3cn2)cc1Nc1ccccc1S(C)(=O)=O [Example 13] | 
41 | 50 nM |  | CNC(=O)c1nnc(NC(=O)C2CC2)cc1Nc1cccc(-c2cnn(CC(F)F)c2)c1OC [Example 187] | 
42 | 70 nM |  | CNC(=O)c1nnc(NC(=O)C2CC2)cc1Nc1cccc(-c2cnccn2)c1OC [Example 75] | 
43 | 110 nM |  | CNC(=O)c1nnc(NC(=O)C2CC2)cc1Nc1cccc(-c2nccc(C)n2)c1OC [Example 82] | 
44 | 30 nM |  | CNC(=O)c1nnc(NC(=O)C2CC2)cc1Nc1cccc(-c2ccncn2)c1OC [Example 86] | 
45 |  | 40 nM | CNC(=O)c1nnc(Nc2cc(C)n(C)n2)cc1Nc1cccc(-c2ncc(C)s2)c1OC [Example 104] | 
46 | 320 nM |  | CNC(=O)c1nnc(NC(=O)C2CC2)cc1Nc1cccc(-c2cccnn2)c1OC [Example 78] | 

Row | Structure (SMILES) | IC50 [1, 3] | IC50 [2, 4] | other results
47 | Cc1cc(Nc2cc(Nc3ccccc3S(C)(=O)=O)c(C(N)=O)nn2)ncc1F [Example 18] | 100 nM | 30 nM | 
48 | CNC(=O)c1nnc(NC(=O)C2CC2)cc1Nc1ccccc1S(C)(=O)=O [Example 17] | 570 nM | 360 nM | 
